Assay results reported in patent US20190125648A1, “COMPOSITION FOR PREVENTING, IMPROVING OR TREATING HAIR LOSS COMPRISING DEOXYCHOLIC ACID AS ACTIVE INGREDIENT” (priority 2016, published 2019).

Tested on: B6CBAF1/j hybrid mice
Test: Testosterone-induced hair loss in mice: hair loss area and follicle count
Type: in vivo
Conditions: after two weeks; testosterone 10 mg/ml + each test substance 1 mg/ml; compared to testosterone alone (group T); FIG. 3
Description: B6CBAF1/j hybrid mice (5 weeks old, male, Charles River Japan) were acclimated for one week in a breeding room and then used from the time of 6 weeks after birth.
For use in an injection agent, a solvent was prepared to contain 15% of ethanol, 5% of NMP, and 80% of PBS. Solutions were prepared by mixing the solvent with the following solutes: group T (testosterone 10 mg/ml), group TD (testosterone 10 mg/ml+deoxycholic acid 1 mg/ml), group TR (testosterone 10 mg/ml+resveratrol 1 mg/ml), group TF (testosterone 10 mg/ml+finasteride 1 mg/ml), and group TRF (testosterone 10 mg/ml+resveratrol 1 mg/ml+finasteride 1 mg/ml).
The animals were anesthetized with isoflurane through inhalation and injected subcutaneously at the neck with 100 μl of a testosterone solution (10 mg/ml) every day. From a couple of weeks, they were photographed along with a scale bar to quantify a hair loss area. After six weeks of testing, the mice were sacrificed by means of a CO2 incubator. Test areas of the skin were taken, fixed with formalin, and prepared into paraffin blocks. The blocks were horizontally sectioned and dyed with H&E (Hematoxylin & Eosin) to count follicles per mm^2.

Compound: Oc1ccc(C=Cc2cc(O)cc(O)c2)cc1 [resveratrol]
- increment in hair loss area: greatly reduced
